According to US7691601B2, “Medium for detecting and/or identifying of microorganisms” (priority 2003, dated 2010):

How the values were obtained:
[1] = tested on: free esterases in a stool sample; test: Coloration at the point of deposit of the stool on Salmonella detection medium (Magenta C8); format: biochemical; set-up: key to Deposit coloration: 0=no coloration; 0.5=trace of coloration; 1=weak coloration; 2=strong coloration; details: for Deposit coloration: Table 3
Method: (§1) Preparation of the detection medium: A volume of 250 ml of detection medium is prepared from a powdered medium having the following composition:
(§2) Melting is carried out at 100° C., and the medium is autoclaved at 121° C. for 15 minutes. The additives are then added to the medium: Magenta C8 (500 mg/l; B-7102, BIOSYNTH, Staad, Switzerland); X-glucoside (75 mg/l; B-7250, BIOSYNTH, Staad, Switzerland); cefsulodine (10 mg/l; C 4786, Sigma, St Quentin Fallavier, France) and various concentrations of the inhibitor O,O-diethyl p-nitrophenyl phosphate (Paraoxon® ethyl; CAS No. 311-45-5; 36186, Riedel-de Haën, St Quentin Fallavier, France; 0; 1; 5 or 10 mg/l).
(§3) The various detection media thus obtained are then poured into Petri dishes.
(§4) Seeding of Salmonella bacteria: 10 μl of stools are deposited onto a Petri dish, this stool suspension is mixed or not mixed with 10 μl of a suspension of Salmonella (0.5 McF) and isolated as 3 dials on a Petri dish. Various […] and various Salmonella strains originating from the applicant's collection are used according to this protocol. The Petri dishes are incubated at 37° C. for 24 hours. The appearance of a coloration at the point of deposit of the stool (“deposit” column) and at the Salmonella colony (“colony” column) is read according to a semi-quantitative scale: • 0=no coloration • 0.5=trace of coloration • 1=weak coloration • 2=strong coloration The results obtained are given in Table 1.
(§5) Melting is carried out at 100° C., and the medium is autoclaved at 121° C. for 15 minutes. The additives are then added to the medium: Magenta C8 (500 mg/l; B-7102, BIOSYNTH, Staad, Switzerland); X-glucoside (75 mg/l; B-7250, BIOSYNTH, Staad, Switzerland); cefsulodine (10 mg/l; C 4786, Sigma, St Quentin Fallavier, France) and various concentrations of the inhibitor O,O-dimethyl p-nitrophenyl phosphate (Paraoxon® methyl; CAS No. 950-35-6; Riedel-de Haën, St Quentin Fallavier, France; 5, 10, 25 mg/l).
(§6) Seeding of Salmonella bacteria: The Petri dishes are inoculated, incubated and read as in Example 1.
(§7) Preparation of the detection medium: 250 ml of the medium of Example 1, in which the O,O-diethyl p-nitrophenyl phosphate is replaced with various concentrations of O,O-di-(2-chloroethyl)-O-(3-chloro-4-methylcoumarin-7-yl)phosphate (Haloxon®; CAS No. 321-55-1; R276995, Sigma, St Quentin Fallavier, France; 0; 1; 10; 100 or 1000 mg/l), are prepared according to the method of Example 1.
(§8) The various selection media thus obtained are then poured into Petri dishes.

Salmonella Enteritidis = test: Coloration of Salmonella Enteritidis colonies on detection medium; format: cell-based; set-up: key: 0=no coloration; 0.5=trace of coloration; 1=weak coloration; 2=strong coloration
Method: as §1, §2, §3, §4, §5, §6, §7, §8

Salmonella Typhi = test: Coloration of Salmonella Typhi colonies on detection medium; format: cell-based; set-up: key: 0=no coloration; 0.5=trace of coloration; 1=weak coloration; 2=strong coloration
Method: as §1, §2, §3, §4, §5, §6, §7, §8

Candida krusei = test: Coloration of Candida krusei colonies on detection medium; format: cell-based; set-up: key: 0=absence of coloration; 0.5=trace coloration; 1=weak coloration; 2=strong coloration; details: Table 4, 75 mg/l
Method: as §1
(§9) Melting is carried out at 100° C., and the medium is autoclaved at 121° C. for 15 minutes. The additives are then added to the medium: Magenta C8 (500 mg/l; B-7102, BIOSYNTH, Staad, Switzerland); X-glucoside (75 mg/l; B-7250, BIOSYNTH, Staad, Switzerland); cefsulodine (10 mg/l; C 4786, Sigma, St Quentin Fallavier, France), and also the esterase inhibitor: • ? O,O-diethyl p-nitrophenyl phosphate: 5 mg/l • ? O,O-dimethyl p-nitrophenyl phosphate: 25 mg/l or • ? O,O-di-(2-chloroethyl)-O-(3-chloro-4-methylcoumarin-7-yl)phosphate: 75 mg/l
as §8
(§10) Seeding of yeast of the Candida genus: 10 μl of stools are deposited onto a Petri dish, and this stool suspension is mixed or not mixed with 10 μl of a suspension of Candida and isolated as 3 dials on a Petri dish. Various stools and various strains of Candida genus originating from the applicant's collection are used according to this protocol. The Petri dishes are incubated at 37° C. for 24 hours.
(§11) The appearance of a coloration at the point of deposit of the stool and in the Candida colonies is read according to a semi-quantitative scale: • 0=absence of coloration • 0.5=trace coloration • 1=weak coloration • 2=strong coloration.

[2] = Colonies column read for stool without added strain, Candida detection medium; set-up: key: 0=absence of coloration; 0.5=trace coloration; 1=weak coloration; 2=strong coloration; details: Table 4, 75 mg/l, no strain
Method: as §1, §9, §8, §10, §11

free esterases in stools = test: Coloration at the point of deposit of the stool on Candida detection medium; format: biochemical; set-up: key: 0=no coloration; 0.5=trace of coloration; 1=weak coloration; 2=strong coloration; details: Table 4, 75 mg/l
Method: as §1, §9, §8, §10, §11

Cc1c(Cl)c(=O)oc2cc(OP(=O)(OCCCl)OCCCl)ccc12 [O,O-di-(2-chloroethyl)-O-(3-chloro-4-methylcoumarin-7-yl) phosphate]
Deposit coloration ([1]; 1 mg/l, stool A, Salmonella Enteritidis): 1 | Deposit coloration ([1]; 1 mg/l, stool A, Salmonella Paratyphi A): 1 | Deposit coloration ([1]; 1 mg/l, stool A, Salmonella Typhi): 1 | Deposit coloration ([1]; 1 mg/l, stool A, no strain): 1 | Deposit coloration ([1]; 1 mg/l, stool B, Salmonella Enteritidis): 0 | Deposit coloration ([1]; 1 mg/l, stool B, Salmonella Paratyphi A): 0 | Deposit coloration ([1]; 1 mg/l, stool B, Salmonella Typhi): 0 | Deposit coloration ([1]; 1 mg/l, stool B, no strain): 1 | Deposit coloration ([1]; 10 mg/l, stool A, Salmonella Enteritidis): 1 | Deposit coloration ([1]; 10 mg/l, stool A, Salmonella Paratyphi A): 1 | Deposit coloration ([1]; 10 mg/l, stool A, Salmonella Typhi): 1 | Deposit coloration ([1]; 10 mg/l, stool A, no strain): 1 | Deposit coloration ([1]; 10 mg/l, stool B, Salmonella Enteritidis): 0 | Deposit coloration ([1]; 10 mg/l, stool B, Salmonella Paratyphi A): 0 | Deposit coloration ([1]; 10 mg/l, stool B, Salmonella Typhi): 0 | Deposit coloration ([1]; 10 mg/l, stool B, no strain): 0.5 | Deposit coloration ([1]; 100 mg/l, stool A, Salmonella Enteritidis): 0.5 | Deposit coloration ([1]; 100 mg/l, stool A, Salmonella Paratyphi A): 0.5 | Deposit coloration ([1]; 100 mg/l, stool A, Salmonella Typhi): 0.5 | Deposit coloration ([1]; 100 mg/l, stool A, no strain): 0.5 | Deposit coloration ([1]; 100 mg/l, stool B, Salmonella Enteritidis): 0 | Deposit coloration ([1]; 100 mg/l, stool B, Salmonella Paratyphi A): 0 | Deposit coloration ([1]; 100 mg/l, stool B, Salmonella Typhi): 0 | Deposit coloration ([1]; 100 mg/l, stool B, no strain): 0 | Deposit coloration ([1]; 1000 mg/l, stool A, Salmonella Enteritidis): 0 | Deposit coloration ([1]; 1000 mg/l, stool A, Salmonella Paratyphi A): 0 | Deposit coloration ([1]; 1000 mg/l, stool A, Salmonella Typhi): 0 | Deposit coloration ([1]; 1000 mg/l, stool A, no strain): 0 | Deposit coloration ([1]; 1000 mg/l, stool B, Salmonella Enteritidis): 0 | Deposit coloration ([1]; 1000 mg/l, stool B, Salmonella Paratyphi A): 0 | Deposit coloration ([1]; 1000 mg/l, stool B, Salmonella Typhi): 0 | Deposit coloration ([1]; 1000 mg/l, stool B, no strain): 0 | Aspecific enzymatic reactions due to the presence of free enzymes ([1]; stools, Salmonella detection medium, summary in words): greatly inhibited | Colonies coloration (Salmonella Enteritidis; Table 3, 1 mg/l, stool A): 2 | Colonies coloration (Salmonella Enteritidis; Table 3, 1 mg/l, stool B): 2 | Colonies coloration (Salmonella Enteritidis; Table 3, 10 mg/l, stool A): 2 | Colonies coloration (Salmonella Enteritidis; Table 3, 10 mg/l, stool B): 2 | Colonies coloration (Salmonella Enteritidis; Table 3, 100 mg/l, stool A): 2 | Colonies coloration (Salmonella Enteritidis; Table 3, 100 mg/l, stool B): 2 | Colonies coloration (Salmonella Enteritidis; Table 3, 1000 mg/l, stool A): 2 | Colonies coloration (Salmonella Enteritidis; Table 3, 1000 mg/l, stool B): 2 | Colonies coloration (Salmonella Typhi; Table 3, 1 mg/l, stool A): 1 | Colonies coloration (Salmonella Typhi; Table 3, 1 mg/l, stool B): 1 | Colonies coloration (Salmonella Typhi; Table 3, 10 mg/l, stool A): 1 | Colonies coloration (Salmonella Typhi; Table 3, 10 mg/l, stool B): 1 | Colonies coloration (Salmonella Typhi; Table 3, 100 mg/l, stool A): 1 | Colonies coloration (Salmonella Typhi; Table 3, 100 mg/l, stool B): 1 | Colonies coloration (Salmonella Typhi; Table 3, 1000 mg/l, stool A): 1 | Colonies coloration (Salmonella Typhi; Table 3, 1000 mg/l, stool B): 1 | Colonies coloration (Candida krusei; stool A): 0.5 | Colonies coloration (Candida krusei; stool B): 0.5 | Colonies coloration ([2]; stool A): 0 | Colonies coloration ([2]; stool B): 0 | Deposit coloration (free esterases in stools; stool A, Candida albicans): 1 | Deposit coloration (free esterases in stools; stool A, Candida dubliniensis): 1 | Deposit coloration (free esterases in stools; stool A, Candida krusei): 1 | Deposit coloration (free esterases in stools; stool B, Candida albicans): 1 | Deposit coloration (free esterases in stools; stool B, Candida dubliniensis): 1 | Deposit coloration (free esterases in stools; stool B, Candida krusei): 1
